ChEMBL document CHEMBL4052632 (Eur J Med Chem, 2017)
Activity calls are given as the source filed them. No cut-off for these calls is given here.

Tests used:
A2780 = assay: Antiproliferative activity against human A2780 cells measured after 48 hrs by MTT assay; assay type: functional, cell-based; details: A2780, 48 h
cells = details: Homo sapiens, OVCA433, 48 h
Description: Antiproliferative activity against human OVCA433 cells measured after 48 hrs by MTT assay

[1] = target: T1, Glycogen synthase kinase-3 beta (Homo sapiens, UniProt P49841); assay: biochemical
Description: Inhibition of recombinant N-terminal His6-tagged human GSK3beta H350L mutant expressed in baculovirus infected Sf21 insect cells using polypeptide GS-2 as substrate after 30 mins in presence of ATP by kinase-glo luminescence assay

[2] = test system: Glycogen synthase kinase-3 beta (Homo sapiens), P49841 [UNDEFINED MUTATION]; assay: Non-competitive inhibition of recombinant N-terminal His6-tagged human GSK3beta H350L mutant expressed in baculovirus infected Sf21 insect cells at 6.25 to 12.5 uM in presence of varying levels of ATP and constant GS-2 substrate concentration after 30 mins by double reciprocal plot analysis
Sequence of Glycogen synthase kinase-3 beta (Homo sapiens), P49841 [UNDEFINED MUTATION] (P49841 whole entry, looked up, stated change not applied): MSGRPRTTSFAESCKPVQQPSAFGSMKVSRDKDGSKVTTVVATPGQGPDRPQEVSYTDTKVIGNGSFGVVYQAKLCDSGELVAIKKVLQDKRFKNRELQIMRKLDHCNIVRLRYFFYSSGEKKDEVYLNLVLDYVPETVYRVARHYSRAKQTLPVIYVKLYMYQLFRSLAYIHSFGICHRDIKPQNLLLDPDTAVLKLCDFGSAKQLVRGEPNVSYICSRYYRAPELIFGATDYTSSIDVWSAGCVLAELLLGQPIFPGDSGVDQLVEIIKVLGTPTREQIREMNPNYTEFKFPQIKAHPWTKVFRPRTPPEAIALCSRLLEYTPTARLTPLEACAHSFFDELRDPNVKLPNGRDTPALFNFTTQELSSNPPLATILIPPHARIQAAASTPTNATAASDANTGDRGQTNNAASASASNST

[3] = test system: Glycogen synthase kinase-3 beta (Homo sapiens), P49841 [UNDEFINED MUTATION]; assay: Non-competitive inhibition of recombinant N-terminal His6-tagged human GSK3beta H350L mutant expressed in baculovirus infected Sf21 insect cells at 6.25 to 12.5 uM in presence of constant levels of ATP and varying GS-2 substrate concentration after 30 mins by double reciprocal plot analysis
[4] = target: Receptor tyrosine-protein kinase erbB-4 (Homo sapiens) (UniProt Q15303); assay: Inhibition of ErbB4 (unknown origin) using poly (Glu, Tyr) 4:1 as substrate after 1 hr by ELISA relative to control; details: concentration not given here
Sequence of Receptor tyrosine-protein kinase erbB-4 (Homo sapiens) (Q15303 whole entry): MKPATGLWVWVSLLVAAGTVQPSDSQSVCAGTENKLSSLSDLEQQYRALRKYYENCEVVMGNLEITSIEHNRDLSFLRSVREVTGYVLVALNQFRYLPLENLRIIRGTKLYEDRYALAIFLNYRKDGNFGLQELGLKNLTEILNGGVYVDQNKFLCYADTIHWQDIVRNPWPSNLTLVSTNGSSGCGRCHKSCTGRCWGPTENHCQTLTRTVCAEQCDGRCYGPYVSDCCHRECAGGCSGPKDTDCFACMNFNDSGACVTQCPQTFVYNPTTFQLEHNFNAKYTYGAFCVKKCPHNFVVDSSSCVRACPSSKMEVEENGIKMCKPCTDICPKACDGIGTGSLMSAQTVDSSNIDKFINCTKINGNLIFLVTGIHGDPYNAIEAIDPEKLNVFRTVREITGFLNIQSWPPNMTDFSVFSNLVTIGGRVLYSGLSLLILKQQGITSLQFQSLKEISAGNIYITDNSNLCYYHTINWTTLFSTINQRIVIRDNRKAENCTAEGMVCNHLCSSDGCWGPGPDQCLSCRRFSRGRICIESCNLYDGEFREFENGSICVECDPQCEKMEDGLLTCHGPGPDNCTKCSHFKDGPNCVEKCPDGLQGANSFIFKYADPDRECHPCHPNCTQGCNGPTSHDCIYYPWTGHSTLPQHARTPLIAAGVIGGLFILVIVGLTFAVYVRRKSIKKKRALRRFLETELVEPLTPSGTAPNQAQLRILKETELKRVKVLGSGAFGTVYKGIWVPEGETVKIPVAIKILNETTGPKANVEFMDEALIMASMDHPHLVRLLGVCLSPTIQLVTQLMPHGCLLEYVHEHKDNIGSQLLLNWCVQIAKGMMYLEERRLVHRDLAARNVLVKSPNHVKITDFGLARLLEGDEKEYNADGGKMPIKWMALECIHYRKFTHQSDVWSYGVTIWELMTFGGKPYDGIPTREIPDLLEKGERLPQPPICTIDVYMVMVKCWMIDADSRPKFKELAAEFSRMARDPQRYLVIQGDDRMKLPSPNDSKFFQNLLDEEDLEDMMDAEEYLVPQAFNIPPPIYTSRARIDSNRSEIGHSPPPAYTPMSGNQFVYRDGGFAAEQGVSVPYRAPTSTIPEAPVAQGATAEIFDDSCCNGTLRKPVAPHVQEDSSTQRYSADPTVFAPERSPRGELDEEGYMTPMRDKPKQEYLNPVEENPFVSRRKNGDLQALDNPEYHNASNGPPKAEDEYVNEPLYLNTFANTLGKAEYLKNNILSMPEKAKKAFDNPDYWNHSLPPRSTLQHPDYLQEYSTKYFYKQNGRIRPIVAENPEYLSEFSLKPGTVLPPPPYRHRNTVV

[5] = test system: Glycogen synthase kinase-3 beta (Homo sapiens), P49841 [UNDEFINED MUTATION]; assay: Non-competitive inhibition of recombinant N-terminal His6-tagged human GSK3beta H350L mutant expressed in baculovirus infected Sf21 insect cells at 20 to 50 uM in presence of varying levels of ATP and constant GS-2 substrate concentration after 30 mins by double reciprocal plot analysis
[6] = test system: Glycogen synthase kinase-3 beta (Homo sapiens), P49841 [UNDEFINED MUTATION]; assay: Non-competitive inhibition of recombinant N-terminal His6-tagged human GSK3beta H350L mutant expressed in baculovirus infected Sf21 insect cells at 20 to 50 uM in presence of constant levels of ATP and varying GS-2 substrate concentration after 30 mins by double reciprocal plot analysis
[7] = target: T1, Glycogen synthase kinase-3 beta
Description: Inhibition of GSK3beta (unknown origin)

T1 sequence (P49841 whole entry): as the sequence (P49841 whole entry, looked up, stated change not applied) above

Structure (SMILES)	IC50 (A2780) [µM]	IC50 (cells) [µM]	IC50 [1] [µM]	other results
Cn1sc(=O)n(Cc2ccccc2)c1=O	20	15.3		
CCCCCCCCCCCCCC(=O)N1CCC(NC(=O)C2Sc3ccccc3N(CC)C2=O)CC1 (configuration not stated)	13.1	14.9	27.3	
CCCCCCCCCCCCCCCC(=O)N1CCN(C(=O)C2Sc3ccccc3N(CC)C2=O)CC1 (configuration not stated)	13.2	15.4	8.7	inhibition [2]: Active; inhibition [3]: Active
CCCCCCCCCCCCCCCC(=O)N1CCC(NC(=O)C2Sc3ccccc3N(CC)C2=O)CC1 (configuration not stated)	11.4	30.4	18.6	
CCCCCCCCCCC(=O)N1CCN(C(=O)C2Sc3ccccc3N(CC)C2=O)CC1 (configuration not stated)	21.8	22.9	27.1	
CCCCCCCCCCC(=O)N1CCC(NC(=O)C2Sc3ccccc3N(CC)C2=O)CC1 (configuration not stated)	16.6	28.2	44.3	
CCCCCCCCCC(=O)NC1CCN(C(=O)C2Sc3ccccc3N(CC)C2=O)CC1 (configuration not stated)	27.2	77.4	68.3	
CCCCCCCCCCCCCCC(=O)N1CCC(NC(=O)C2Sc3ccccc3N(CC)C2=O)CC1 (configuration not stated)	9	17.5	17.9	
CCCCCCCCCCCCCC(=O)N1CCN(C(=O)C2Sc3ccccc3N(CC)C2=O)CC1 (configuration not stated)	16.7	16.9	18.9	
CCCCCCCCCCCCCCCCC(=O)NC1CCN(C(=O)C2Sc3ccccc3N(CC)C2=O)CC1 (configuration not stated)	4.7	> 100	46.7	
CCCCCCCCCCCC(=O)NNC(=O)C1Sc2ccccc2N(CC)C1=O (configuration not stated)	40.7	> 100	11.9	
CN(C)C/C=C/C(=O)Nc1cc2c(Nc3ccc(F)c(Cl)c3)ncnc2cc1O[C@H]1CCOC1				inhibition [4]: 98.2%
CCCCCCCCCCCC(=O)N1CCC(NC(=O)C2Sc3ccccc3N(CC)C2=O)CC1 (configuration not stated)	16.6	26.8	29.7	
CCCCCCCCCC(=O)N1CCN(C(=O)C2Sc3ccccc3N(CC)C2=O)CC1 (configuration not stated)	36	89.5	51.7	
CCCCCCCCC(=O)N1CCC(NC(=O)C2Sc3ccccc3N(CC)C2=O)CC1 (configuration not stated)	24.7	90.6	> 100	
CCCCCCCCCCC(=O)NC1CCN(C(=O)C2Sc3ccccc3N(CC)C2=O)CC1 (configuration not stated)	23.4	34.4	45.9	
CCCCCCCCCCCCCCCC(=O)NC1CCN(C(=O)C2Sc3ccccc3N(CC)C2=O)CC1 (configuration not stated)	3.5	69.8	11.7	inhibition [5]: Active; inhibition [6]: Active
CCCCCCCCCCCCNC(=O)C1Sc2ccccc2N(CC)C1=O (configuration not stated)	15.5	> 100	22.9	
CCCCCCCCCCCC(=O)N1CCN(C(=O)C2Sc3ccccc3N(CC)C2=O)CC1 (configuration not stated)	16.6	19.5	23.2	
CCCCCCCCCC(=O)N1CCC(NC(=O)C2Sc3ccccc3N(CC)C2=O)CC1 (configuration not stated)	23.6	47.7	74.9	
CCCCCCCCCCCCCC(=O)NC1CCN(C(=O)C2Sc3ccccc3N(CC)C2=O)CC1 (configuration not stated)	9.1	26.2	33.4	
O=C1Cc2cc(Br)ccc2/C1=c1/[nH]c2ccccc2/c1=C\O				IC50 [7]: 0.005 µM
CCCCCCCCCCCC(=O)NC1CCN(C(=O)C2Sc3ccccc3N(CC)C2=O)CC1 (configuration not stated)	13	28.4	33.4	
CCCCCCCCC(=O)NC1CCN(C(=O)C2Sc3ccccc3N(CC)C2=O)CC1 (configuration not stated)	33.1	> 100	> 100	
CCCCCCCCC(=O)N1CCN(C(=O)C2Sc3ccccc3N(CC)C2=O)CC1 (configuration not stated)	34.1	81.8	> 100	
CCN1C(=O)C(C(=O)N2CCC(NC(=O)CCCCCc3ccccc3)CC2)Sc2ccccc21 (configuration not stated)	36	> 100	> 100	
